The text below walks through data of patent publication US11718626B2, “Macrocyclic compounds for treatment of medical disorders” (Achillion Pharmaceuticals, Inc., priority 2017, dated 2023).

Several values for one entry are separate records, joined by “and”; a condition that tells them apart may be missing. Identical values can stand only once. Like-named read-outs stand apart in the source and are kept apart here.

The conditions of data set [1]: rcm bond, toluene, 80.0 °C.
The conditions of data set [2]: rcm bond, Grubbs II, toluene, 80.0 °C.

In data set [1] (from C=CCCCC(=O)NC[C@@]12C[C@@H](C(=O)Nc3nc(Br)ccc3C)N(C(=O)Cn3nc(C#N)c4cc(-c5cnc(C)nc5)nc(CC=C)c43)[C@@H]1C2, 17-membered ring, Grubbs II, 1.27 mM, 16.0 h), `Cc1ncc(-c2cc3c(C#N)nn4c3c(n2)CC=CCCCC(=O)NC[C@@]23C[C@@H](C(=O)Nc5nc(Br)ccc5C)N(C(=O)C4)[C@@H]2C3)cn1` displayed a ring closure, isolated yield of 44.8%.

As for `CC(=O)c1nn2c3cc(c(-c4cnc(C)nc4)cc13)OCCCCC=CCOC[C@@]13C[C@@H](C(=O)Nc4nc(Br)ccc4C)N(C(=O)C2)[C@@H]1C3`, the ring closure, yield after HPLC in data set [2] (from C=CCCCCOc1cc2c(cc1-c1cnc(C)nc1)c(C(C)=O)nn2CC(=O)N1[C@H](C(=O)Nc2nc(Br)ccc2C)C[C@@]2(COCC=C)C[C@@H]12, 18-membered ring, 1.32 mM, 16.0 h) is 10.6% and 7.07%.

On to “(41R,43S,45S,E)-13-Acetyl-N-(6-bromo-3-methylpyridin-2-yl)-3,14-dioxo-11H-6,15-dioxa-42,13-diaza-1(1,6)-indazola-4(2,5)-bicyclo[3.1.0]hexanacyclopentadecaphan-8-ene-43-carboxamide”, for which the ring closure, isolated yield in data set [1] (20-membered ring, Grubbs II, 1.48 mM) is 4.1%.

With `CC(=O)c1nn2c3c(cc(-c4cnc(C)nc4)cc13)CCCCC=CCC=C[C@@]13C[C@@H](C(=O)Nc4nc(Br)ccc4C)N(C(=O)C2)[C@@H]1C3`, the ring closure, isolated yield in data set [1] (from C=CCC=C[C@@]12C[C@@H](C(=O)Nc3nc(Br)ccc3C)N(C(=O)Cn3nc(C(C)=O)c4cc(-c5cnc(C)nc5)cc(CCCCC=C)c43)[C@@H]1C2, 17-membered ring, Grubbs II, 2.27 mM, 16.0 h) was 21.8%.

Molecule `CN1CCCCC=CCc2ccc(Br)nc2NC(=O)[C@@H]2C[C@]3(C[C@H]3N2C(=O)OC(C)(C)C)C1` gave a ring closure, isolated yield in data set [1] (from C=CCCCCN(C)C[C@@]12C[C@@H](C(=O)Nc3nc(Br)ccc3CC=C)N(C(=O)OC(C)(C)C)[C@@H]1C2, 16-membered ring, Grubbs II, 1.83 mM) of 93.5%.

Molecule `CC(C)(C)OC(=O)N1[C@H]2C[C@@]3(Cc4nc(no4)C=CCOCc4ccc(Br)nc4NC2=O)C[C@@H]13` registered a ring closure, isolated yield in data set [1] (from C=CCOCc1ccc(Br)nc1NC(=O)[C@@H]1C[C@@]2(Cc3nc(C=C)no3)C[C@H]2N1C(=O)OC(C)(C)C, 16-membered ring, Zhan-1B, 1.75 mM, 16.0 h) of 56.2%.

Consider `CC(C)(C)OC(=O)N1[C@H]2C[C@@]3(CNC(=O)C(C)(C)CC=CCOCc4ccc(Br)nc4NC2=O)C[C@@H]13`, for which, in data set [1] (from C=CCOCc1ccc(Br)nc1NC(=O)[C@@H]1C[C@@]2(CNC(=O)C(C)(C)CC=C)C[C@H]2N1C(=O)OC(C)(C)C, 17-membered ring, Grubbs II, 3.14 mM, 16.0 h), the ring closure, isolated yield stood at 83.1%.

The molecule `CN1CCCCCC=C[C@@]23C[C@@H](C(=O)Nc4nc(Br)ccc4C1)N(C(=O)OC(C)(C)C)[C@@H]2C3` came in with a ring closure, isolated yield in data set [1] (from C=CCCCCCN(C)Cc1ccc(Br)nc1NC(=O)[C@@H]1C[C@@]2(C=C)C[C@H]2N1C(=O)OC(C)(C)C, 16-membered ring, Grubbs II, 1.78 mM, 16.0 h) of 72.4%.

The molecule `CC(C)(C)OC(=O)N1[C@H]2C[C@@]3(CCCC=CCOCc4ccc(Br)nc4NC2=O)C[C@@H]13` had a ring closure, isolated yield in data set [1] (from C=CCCC[C@@]12C[C@@H](C(=O)Nc3nc(Br)ccc3COCC=C)N(C(=O)OC(C)(C)C)[C@@H]1C2, 15-membered ring, Grubbs II, 1.87 mM) of 70.4%.

In data set [1] (17-membered ring, Grubbs II, 2.0 mM), “tert-Butyl (41R,43S,45R,E)-16-Bromo-8,8-difluoro-3,7-dioxo-13-oxa-42,2,6-triaza-1(2,3)-pyridina-4(3,5)-bicyclo[3.1.0]hexanacyclotetradecaphan-10-ene-42-carboxylate” had a ring closure, isolated yield of 96.5%.

`CC(=O)c1nn2c3c(cc(-c4cnc(C)nc4)cc13)CCC=CCCCC(=O)NC[C@@]13C[C@@H](C(=O)Nc4nc(Br)ccc4C)N(C(=O)C2)[C@@H]1C3`: the ring closure, yield after HPLC was 15.8% in data set [2] (from C=CCCCC(=O)NC[C@@]12C[C@@H](C(=O)Nc3nc(Br)ccc3C)N(C(=O)Cn3nc(C(C)=O)c4cc(-c5cnc(C)nc5)cc(CCC=C)c43)[C@@H]1C2, 17-membered ring, 7.0 mM, 2.5 h) and 11.6% in data set [2] (from C=CCCCC(=O)NC[C@@]12C[C@@H](C(=O)Nc3nc(Br)ccc3C)N(C(=O)Cn3nc(C(C)=O)c4cc(-c5cnc(C)nc5)cc(CCC=C)c43)[C@@H]1C2, 18-membered ring, 7.0 mM, 2.5 h).

As for `CC(=O)c1nn2c3c(cc(-c4cnc(C)nc4)cc13)CCCCC=CCc1cccc(c1)COC[C@@]13C[C@@H](C(=O)Nc4nc(Br)ccc4C)N(C(=O)C2)[C@@H]1C3`, the ring closure, isolated yield in data set [1] (from C=CCCCCc1cc(-c2cnc(C)nc2)cc2c(C(C)=O)nn(CC(=O)N3[C@H](C(=O)Nc4nc(Br)ccc4C)C[C@@]4(COCc5cccc(CC=C)c5)C[C@@H]34)c12, 21-membered ring, Grubbs II, 1.83 mM, 16.0 h) came out at 40.9%.

In turn, `CC(C)(C)OC(=O)N1[C@H]2C[C@@]3(CNC(=O)C(F)(F)CC=CCOCc4ccc(Br)nc4NC2=O)C[C@@H]13` gave a ring closure, isolated yield in data set [1] (from C=CCOCc1ccc(Br)nc1NC(=O)[C@@H]1C[C@@]2(CNC(=O)C(F)(F)CC=C)C[C@H]2N1C(=O)OC(C)(C)C, 17-membered ring, Grubbs II, 2.0 mM) of 96.5%.

`CC(=O)c1nn2c3cc(ccc13)NC(=O)NCCCC=CCOC[C@@]13C[C@@H](C(=O)Nc4nc(Br)ccc4C)N(C(=O)C2)[C@@H]1C3` gave a ring closure, yield after HPLC in data set [2] (from C=CCCCNC(=O)Nc1ccc2c(C(C)=O)nn(CC(=O)N3[C@H](C(=O)Nc4nc(Br)ccc4C)C[C@@]4(COCC=C)C[C@@H]34)c2c1, 20-membered ring, 1.6 mM, 16.0 h) of 2.1%.

In data set [1] (from C=CCCCCOC(=O)Nc1ccc2c(C(C)=O)nn(CC(=O)N3[C@H](C(=O)Nc4nc(Br)ccc4C)C[C@@]4(COCC=C)C[C@@H]34)c2c1, 21-membered ring, Grubbs II, 1.7 mM, 16.0 h), `CC(=O)c1nn2c3cc(ccc13)NC(=O)OCCCCC=CCOC[C@@]13C[C@@H](C(=O)Nc4nc(Br)ccc4C)N(C(=O)C2)[C@@H]1C3` came in with a ring closure, isolated yield of 51.2%.

`CC(=O)c1nn2c3c(cc(-c4cnc(C)nc4)cc13)CCCCCCC=Cc1cn(nn1)C[C@@]13C[C@@H](C(=O)Nc4nc(Br)ccc4C)N(C(=O)C2)[C@@H]1C3` returned a ring closure, isolated yield in data set [1] (from C=CCCCCCCc1cc(-c2cnc(C)nc2)cc2c(C(C)=O)nn(CC(=O)N3[C@H](C(=O)Nc4nc(Br)ccc4C)C[C@@]4(Cn5cc(C=C)nn5)C[C@@H]34)c12, 20-membered ring, Grubbs II, 2.6 mM, 16.0 h) of 59.4%. Besides, the ring closure, yield after HPLC in data set [2] (from C=CCCCCCCc1cc(-c2cnc(C)nc2)cc2c(C(C)=O)nn(CC(=O)N3[C@H](C(=O)Nc4nc(Br)ccc4C)C[C@@]4(Cn5cc(C=C)nn5)C[C@@H]34)c12, 20-membered ring, 2.6 mM, 16.0 h) was 3.97%; in data set [2] (from C=CCCCCCCc1cc(-c2cnc(C)nc2)cc2c(C(C)=O)nn(CC(=O)N3[C@H](C(=O)Nc4nc(Br)ccc4C)C[C@@]4(Cn5cc(C=C)nn5)C[C@@H]34)c12, 2.6 mM, 16.0 h), 6.93%.

Molecule `CC(=O)c1nn2c3c(cc(-c4cnc(C)nc4)cc13)CC=CCCCC(=O)N(C)C[C@@]13C[C@@H](C(=O)Nc4ccc(C)c(C(F)(F)F)n4)N(C(=O)C2)[C@@H]1C3` yielded a ring closure, isolated yield in data set [1] (from C=CCCCC(=O)N(C)C[C@@]12C[C@@H](C(=O)Nc3ccc(C)c(C(F)(F)F)n3)N(C(=O)Cn3nc(C(C)=O)c4cc(-c5cnc(C)nc5)cc(CC=C)c43)[C@@H]1C2, 17-membered ring, Grubbs II, 1.24 mM) of 70.6%.

For the molecule `CC(=O)c1nn2c3cc(ccc13)C(=O)NCCCCC=CCOC[C@@]13C[C@@H](C(=O)Nc4nc(Br)ccc4C)N(C(=O)C2)[C@@H]1C3`, the ring closure, isolated yield in data set [1] (from C=CCCCCNC(=O)c1ccc2c(C(C)=O)nn(CC(=O)N3[C@H](C(=O)Nc4nc(Br)ccc4C)C[C@@]4(COCC=C)C[C@@H]34)c2c1, 20-membered ring, Grubbs II, 1.44 mM, 16.0 h) stood at 45.6%.

In data set [1] (16-membered ring, Grubbs II, 1.83 mM), “tert-Butyl (42S,44R,E)-16-Bromo-44-fluoro-3-oxo-6-oxa-2-aza-1(2,3)-pyridina-4(2,4)-pyrrolidinacyclotridecaphan-12-ene-41-carboxylate” came in with a ring closure, isolated yield of 59.3%.

`CC(=O)c1nn2c3c(cc(-c4cnc(C)nc4)cc13)C=CCCCCCN(C)C[C@@]13C[C@@H](C(=O)Nc4nc(Br)ccc4C)N(C(=O)C2)[C@@H]1C3` gave a ring closure, isolated yield in data set [1] (from C=CCCCCCN(C)C[C@@]12C[C@@H](C(=O)Nc3nc(Br)ccc3C)N(C(=O)Cn3nc(C(C)=O)c4cc(-c5cnc(C)nc5)cc(C=C)c43)[C@@H]1C2, 17-membered ring, Zhan-1B, 4.38 mM) of 47.4%.

`CC(=O)c1nn2c3c(cc(-c4cnc(C)nc4)cc13)CCCCCCC=CCOC[C@@]13C[C@@H](C(=O)Nc4nc(Br)ccc4C)N(C(=O)C2)[C@@H]1C3` yielded a ring closure, isolated yield in data set [1] (from C=CCCCCCCc1cc(-c2cnc(C)nc2)cc2c(C(C)=O)nn(CC(=O)N3[C@H](C(=O)Nc4nc(Br)ccc4C)C[C@@]4(COCC=C)C[C@@H]34)c12, 19-membered ring, Grubbs II, 3.0 mM, 4.0 h) of 88.7%.

As for `CC(=O)c1nn2c3c(cc(-c4cnc(C)nc4)cc13)CCCCC=CCc1cccc(n1)OC[C@@]13C[C@@H](C(=O)Nc4nc(Br)ccc4C)N(C(=O)C2)[C@@H]1C3`, in data set [2] (from C=CCCCCc1cc(-c2cnc(C)nc2)cc2c(C(C)=O)nn(CC(=O)N3[C@H](C(=O)Nc4nc(Br)ccc4C)C[C@@]4(COc5cccc(CC=C)n5)C[C@@H]34)c12, 1.6 mM, 16.0 h), the ring closure, yield after HPLC worked out at 78.1%.

`CC(=O)c1nn2c3cc(ccc13)NC(=O)OCCCC=CCOC[C@@]13C[C@@H](C(=O)Nc4nc(Br)ccc4C)N(C(=O)C2)[C@@H]1C3`: the ring closure, yield after HPLC in data set [2] (from C=CCCCOC(=O)Nc1ccc2c(C(C)=O)nn(CC(=O)N3[C@H](C(=O)Nc4nc(Br)ccc4C)C[C@@]4(COCC=C)C[C@@H]34)c2c1, 20-membered ring, 2.0 mM, 2.0 h) was found to be 68.5%.

For `CC(=O)c1nn2c3c(nc(-c4cnc(C)nc4)cc13)CC=CCCCC(=O)NC[C@@]13C[C@@H](C(=O)Nc4nc(C(F)(F)F)ccc4C)N(C(=O)C2)[C@@H]1C3`, the ring closure, yield after HPLC in data set [2] (from C=CCCCC(=O)NC[C@@]12C[C@@H](C(=O)Nc3nc(C(F)(F)F)ccc3C)N(C(=O)Cn3nc(C(C)=O)c4cc(-c5cnc(C)nc5)nc(CC=C)c43)[C@@H]1C2, 17-membered ring, 1.4 mM) was found to be 26.9%.
